Key:
Format in all cases: in vivo
catchweed = assay: Test Example 3: weedkilling efficacy through soil treatment; O: catchweed; conditions: soil treatment, treatment dosage 315 g/ha
Text: (§1) Weedkilling Efficacy Test Through Soil Treatment
(§2) Sterilized diluvial soil was introduced into 21 cm long, 13 cm wide, 7 cm deep plastic boxes, and seeds of crabgrass, green foxtail, barnyard grass, wild oat, black-grass, Italian ryegrass, common wind-grass, Indian mallow, redroot pigweed, fig-leafed goosefoot, chickweed, catchweed, birds-eye speedwell, corn, soybean, rice, wheat, beet and rapeseed were each spot-sown, and covered with about 1.5 cm of soil. Next, emulsions of compounds of the present invention prepared according to compounding example 2 were diluted with water to give the specified dosages, and applied uniformly onto the soil surface with a small sprayer. The plants were grown by placing the plastic boxes in a greenhouse at 25 to 30° C., and 3 weeks after the pesticide treatment the effect on each type of plant was investigated on the basis of the assessment criteria of test example 1.
(§3) A: barnyard grass, B: bulrush, C: oval-leafed pondweed, D: crabgrass, E: green foxtail, F: barnyard grass, G: wild oat, H: black-grass, I: Italian ryegrass, J: common wind-grass, K: Indian mallow, L: redroot pigweed, M: fig-leafed goosefoot, N: chickweed, O: catchweed, p: birds-eye speedwell, a: transplanted rice, b: directly sown rice, c: corn, d: soybean, e: wheat, f: beet, g: rapeseed
(§4) Further, pesticide dosage (g/ha) indicates the concentration regulated such that treatment was with only the stated number of grams (g), when calculated per hectare (ha).

green foxtail = assay: Test Example 3: weedkilling efficacy through soil treatment; E: green foxtail; conditions: soil treatment, treatment dosage 315 g/ha
How it was run: (§5)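 Crop and weed responses were judged three weeks after a uniform surface spray of the water-diluted emulsion at the given g/ha rate. Seeds sat beneath about 1.5 cm of sterilized diluvial soil, and boxes stood in a greenhouse at 25 to 30° C.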

bulrush [1] = assay: Test Example 1: weedkilling efficacy, preemergent weed treatment in the submerged state; B: bulrush; conditions: treatment dosage 252 g/ha
How it was run: (§6)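 Emulsion diluted with water to the specified per-hectare dosage is applied onto flood water (4 cm) over alluvial soil on the sowing day, with barnyard grass, bulrush and pondweed seeded and rice (2.5-leaf) transplanted; plants grow at 25–30 °C and are rated at 3 weeks.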

birds-eye speedwell = assay: Test Example 3: weedkilling efficacy through soil treatment; p: birds-eye speedwell; conditions: soil treatment, treatment dosage 315 g/ha
Text: as §1, §2, §3, §4

redroot pigweed = assay: Test Example 3: weedkilling efficacy through soil treatment; L: redroot pigweed; conditions: soil treatment, treatment dosage 315 g/ha
How it was run: as §5

wheat = assay: Test Example 3: soil treatment, effect on crop; e: wheat; conditions: soil treatment, treatment dosage 315 g/ha
How it was run: as §5

soybean = assay: Test Example 3: soil treatment, effect on crop; d: soybean; conditions: soil treatment, treatment dosage 315 g/ha
How it was run: as §5

beet = assay: Test Example 3: soil treatment, effect on crop; f: beet; conditions: soil treatment, treatment dosage 315 g/ha
How it was run: as §5

wild oat = assay: Test Example 3: weedkilling efficacy through soil treatment; G: wild oat; conditions: soil treatment, treatment dosage 315 g/ha
How it was run: as §5

Indian mallow = assay: Test Example 3: weedkilling efficacy through soil treatment; K: Indian mallow; conditions: soil treatment, treatment dosage 315 g/ha
How it was run: as §5

bulrush [2] = assay: Test Example 2: weedkilling efficacy, growth period weed treatment in the submerged state; B: bulrush; conditions: treatment dosage 252 g/ha
How it was run: (§7)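 First, alluvial soil in pots is flooded to 4 cm and mixed seed is sown. Next, plants grow in a greenhouse at 25 to 30° C until the 1-2 leaf stage. Then diluted emulsion is applied onto the water surface at the given g/ha rate, and injury is assessed after 3 weeks.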

barnyard grass [3] = assay: Test Example 1: weedkilling efficacy, preemergent weed treatment in the submerged state; A: barnyard grass; conditions: treatment dosage 252 g/ha
How it was run: as §6

corn = assay: Test Example 3: soil treatment, effect on crop; c: corn; conditions: soil treatment, treatment dosage 315 g/ha
How it was run: as §5

oval-leafed pondweed [4] = assay: Test Example 1: weedkilling efficacy, preemergent weed treatment in the submerged state; C: oval-leafed pondweed; conditions: treatment dosage 252 g/ha
How it was run: as §6

barnyard grass [5] = assay: Test Example 2: weedkilling efficacy, growth period weed treatment in the submerged state; A: barnyard grass; conditions: treatment dosage 252 g/ha
How it was run: as §7

Italian ryegrass = assay: Test Example 3: weedkilling efficacy through soil treatment; I: Italian ryegrass; conditions: soil treatment, treatment dosage 315 g/ha
How it was run: as §5

transplanted rice = assay: Test Example 1: preemergent weed treatment in the submerged state, effect on crop; a: transplanted rice; conditions: treatment dosage 252 g/ha
How it was run: as §6

fig-leafed goosefoot = assay: Test Example 3: weedkilling efficacy through soil treatment; M: fig-leafed goosefoot; conditions: soil treatment, treatment dosage 315 g/ha
How it was run: as §5

directly sown rice = assay: Test Example 3: soil treatment, effect on crop; b: directly sown rice; conditions: soil treatment, treatment dosage 315 g/ha
How it was run: as §5

black-grass = assay: Test Example 3: weedkilling efficacy through soil treatment; H: black-grass; conditions: soil treatment, treatment dosage 315 g/ha
How it was run: as §5

oval-leafed pondweed [6] = assay: Test Example 2: weedkilling efficacy, growth period weed treatment in the submerged state; C: oval-leafed pondweed; conditions: treatment dosage 252 g/ha
How it was run: as §7

chickweed = assay: Test Example 3: weedkilling efficacy through soil treatment; N: chickweed; conditions: soil treatment, treatment dosage 315 g/ha
How it was run: as §5

crabgrass = assay: Test Example 3: weedkilling efficacy through soil treatment; D: crabgrass; conditions: soil treatment, treatment dosage 315 g/ha
How it was run: as §5

SMILES: Cc1ccnc(NC(=O)C(C)(C)N2COCN(c3ccccc3)C2=O)c1 [A-2-37]
- O: catchweed, weedkilling efficacy grade (catchweed): 0 (weed kill ratio 5% or less (practically no effect))
- E: green foxtail, weedkilling efficacy grade (green foxtail): 4 (weed kill ratio 70% or more, less than 90%)
- B: bulrush, weed kill grade (bulrush [1]): 5 (weed kill ratio 90% or more, (practically complete withering))
- P: birds-eye speedwell, weedkilling efficacy grade (birds-eye speedwell): 5 (weed kill ratio 90% or more, (practically complete withering))
- L: redroot pigweed, weedkilling efficacy grade (redroot pigweed): 1 (weed kill ratio 5% or more, less than 20%)
- e: wheat, effect on crop grade (wheat): 0 (weed kill ratio 5% or less (practically no effect))
- d: soybean, effect on crop grade (soybean): 0 (weed kill ratio 5% or less (practically no effect))
- f: beet, effect on crop grade (beet): 0 (weed kill ratio 5% or less (practically no effect))
- G: wild oat, weedkilling efficacy grade (wild oat): 3 (weed kill ratio 40% or more, less than 70%)
- K: Indian mallow, weedkilling efficacy grade (Indian mallow): 0 (weed kill ratio 5% or less (practically no effect))
- B (bulrush) weedkilling efficacy grade (bulrush [2]): 5 (weed kill ratio 90% or more, (practically complete withering))
- A: barnyard grass, weed kill grade (barnyard grass [3]): 5 (weed kill ratio 90% or more, (practically complete withering))
- c: corn, effect on crop grade (corn): 1 (weed kill ratio 5% or more, less than 20%)
- C: oval-leafed pondweed, weed kill grade (oval-leafed pondweed [4]): 5 (weed kill ratio 90% or more, (practically complete withering))
- A (barnyard grass) weedkilling efficacy grade (barnyard grass [5]): 5 (weed kill ratio 90% or more, (practically complete withering))
- I: Italian ryegrass, weedkilling efficacy grade (Italian ryegrass): 5 (weed kill ratio 90% or more, (practically complete withering))
- a: transplanted rice, effect on crop grade (transplanted rice): 0 (weed kill ratio 5% or less (practically no effect))
- M: fig-leafed goosefoot, weedkilling efficacy grade (fig-leafed goosefoot): 3 (weed kill ratio 40% or more, less than 70%)
- b: directly sown rice, effect on crop grade (directly sown rice): 2 (weed kill ratio 20% or more, less than 40%)
- H: black-grass, weedkilling efficacy grade (black-grass): 3 (weed kill ratio 40% or more, less than 70%)
- C (oval-leafed pondweed) weedkilling efficacy grade (oval-leafed pondweed [6]): 3 (weed kill ratio 40% or more, less than 70%)
- N: chickweed, weedkilling efficacy grade (chickweed): 1 (weed kill ratio 5% or more, less than 20%)
- D: crabgrass, weedkilling efficacy grade (crabgrass): 5 (weed kill ratio 90% or more, (practically complete withering))

SMILES: CC(C)(C(=O)Nc1cc(F)ccn1)N1COCN(c2ccccc2)C1=O [A-2-03]
- O: catchweed, weedkilling efficacy grade (catchweed): 5 (weed kill ratio 90% or more, (practically complete withering))
- E: green foxtail, weedkilling efficacy grade (green foxtail): 5 (weed kill ratio 90% or more, (practically complete withering))
- B: bulrush, weed kill grade (bulrush [1]): 5 (weed kill ratio 90% or more, (practically complete withering))
- P: birds-eye speedwell, weedkilling efficacy grade (birds-eye speedwell): 5 (weed kill ratio 90% or more, (practically complete withering))
- L: redroot pigweed, weedkilling efficacy grade (redroot pigweed): 4 (weed kill ratio 70% or more, less than 90%)
- e: wheat, effect on crop grade (wheat): 2 (weed kill ratio 20% or more, less than 40%)
- d: soybean, effect on crop grade (soybean): 0 (weed kill ratio 5% or less (practically no effect))
- f: beet, effect on crop grade (beet): 0 (weed kill ratio 5% or less (practically no effect))
- G: wild oat, weedkilling efficacy grade (wild oat): 5 (weed kill ratio 90% or more, (practically complete withering))
- K: Indian mallow, weedkilling efficacy grade (Indian mallow): 0 (weed kill ratio 5% or less (practically no effect))
- B (bulrush) weedkilling efficacy grade (bulrush [2]): 5 (weed kill ratio 90% or more, (practically complete withering))
- A: barnyard grass, weed kill grade (barnyard grass [3]): 5 (weed kill ratio 90% or more, (practically complete withering))
- c: corn, effect on crop grade (corn): 3 (weed kill ratio 40% or more, less than 70%)
- C: oval-leafed pondweed, weed kill grade (oval-leafed pondweed [4]): 5 (weed kill ratio 90% or more, (practically complete withering))
- A (barnyard grass) weedkilling efficacy grade (barnyard grass [5]): 5 (weed kill ratio 90% or more, (practically complete withering))
- I: Italian ryegrass, weedkilling efficacy grade (Italian ryegrass): 5 (weed kill ratio 90% or more, (practically complete withering))
- a: transplanted rice, effect on crop grade (transplanted rice): 1 (weed kill ratio 5% or more, less than 20%)
- M: fig-leafed goosefoot, weedkilling efficacy grade (fig-leafed goosefoot): 4 (weed kill ratio 70% or more, less than 90%)
- b: directly sown rice, effect on crop grade (directly sown rice): 5 (weed kill ratio 90% or more, (practically complete withering))
- H: black-grass, weedkilling efficacy grade (black-grass): 5 (weed kill ratio 90% or more, (practically complete withering))
- C (oval-leafed pondweed) weedkilling efficacy grade (oval-leafed pondweed [6]): 3 (weed kill ratio 40% or more, less than 70%)
- N: chickweed, weedkilling efficacy grade (chickweed): 4 (weed kill ratio 70% or more, less than 90%)
- D: crabgrass, weedkilling efficacy grade (crabgrass): 5 (weed kill ratio 90% or more, (practically complete withering))

SMILES: CC(C)(C(=O)Nc1ncc(Cl)s1)N1COCN(c2ccccc2)C1=O [A-1-07]
- E: green foxtail, weedkilling efficacy grade (green foxtail): 5 (weed kill ratio 90% or more, (practically complete withering))
- B: bulrush, weed kill grade (bulrush [1]): 5 (weed kill ratio 90% or more, (practically complete withering))
- P: birds-eye speedwell, weedkilling efficacy grade (birds-eye speedwell): 5 (weed kill ratio 90% or more, (practically complete withering))
- L: redroot pigweed, weedkilling efficacy grade (redroot pigweed): 5 (weed kill ratio 90% or more, (practically complete withering))
- e: wheat, effect on crop grade (wheat): 2 (weed kill ratio 20% or more, less than 40%)
- d: soybean, effect on crop grade (soybean): 1 (weed kill ratio 5% or more, less than 20%)
- f: beet, effect on crop grade (beet): 5 (weed kill ratio 90% or more, (practically complete withering))
- G: wild oat, weedkilling efficacy grade (wild oat): 5 (weed kill ratio 90% or more, (practically complete withering))
- K: Indian mallow, weedkilling efficacy grade (Indian mallow): 4 (weed kill ratio 70% or more, less than 90%)
- B (bulrush) weedkilling efficacy grade (bulrush [2]): 5 (weed kill ratio 90% or more, (practically complete withering))
- A: barnyard grass, weed kill grade (barnyard grass [3]): 5 (weed kill ratio 90% or more, (practically complete withering))
- c: corn, effect on crop grade (corn): 3 (weed kill ratio 40% or more, less than 70%)
- C: oval-leafed pondweed, weed kill grade (oval-leafed pondweed [4]): 5 (weed kill ratio 90% or more, (practically complete withering))
- A (barnyard grass) weedkilling efficacy grade (barnyard grass [5]): 5 (weed kill ratio 90% or more, (practically complete withering))
- I: Italian ryegrass, weedkilling efficacy grade (Italian ryegrass): 5 (weed kill ratio 90% or more, (practically complete withering))
- a: transplanted rice, effect on crop grade (transplanted rice): 0 (weed kill ratio 5% or less (practically no effect))
- M: fig-leafed goosefoot, weedkilling efficacy grade (fig-leafed goosefoot): 4 (weed kill ratio 70% or more, less than 90%)
- b: directly sown rice, effect on crop grade (directly sown rice): 5 (weed kill ratio 90% or more, (practically complete withering))
- H: black-grass, weedkilling efficacy grade (black-grass): 5 (weed kill ratio 90% or more, (practically complete withering))
- C (oval-leafed pondweed) weedkilling efficacy grade (oval-leafed pondweed [6]): 5 (weed kill ratio 90% or more, (practically complete withering))
- N: chickweed, weedkilling efficacy grade (chickweed): 4 (weed kill ratio 70% or more, less than 90%)
- D: crabgrass, weedkilling efficacy grade (crabgrass): 5 (weed kill ratio 90% or more, (practically complete withering))

Source: patent publication US9738634B2, “Heterocyclic amide compound and herbicide” (SYNGENTA PARTICIPATIONS AG, priority 2013, dated 2017)
